{"source": "BindingDB's records for doi:10.7270/Q26H4FT9", "about": "(Nmmlsc, 2009)"}
{"biological_target": "Cell division control protein 42 homolog (Homo sapiens, UniProt P60953)", "sequence (P60953 whole entry)": "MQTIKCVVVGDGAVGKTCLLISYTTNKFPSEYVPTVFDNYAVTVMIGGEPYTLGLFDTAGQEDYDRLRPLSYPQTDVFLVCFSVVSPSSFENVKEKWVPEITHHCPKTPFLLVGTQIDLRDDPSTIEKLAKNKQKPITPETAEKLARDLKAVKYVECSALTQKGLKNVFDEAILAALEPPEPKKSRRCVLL", "experiment": "Cdc42 activated mutant GTP-binding inhibitors, SAR follow-up, biochemical, bead-based multiplex flow cytometry, additional SAR set (AID 2021)", "units": {"EC50": "µM"}}
{"smiles": "O=C1NC(=S)N/C1=C1\\C(=O)Nc2ccccc21", "note": "[(3Z)-3-(5-oxo-2-sulfanylideneimidazolidin-4-ylidene)-1H-indol-2-one]", "EC50": 30}
{"smiles": "O=C1Nc2c(Cl)cccc2C1=C1Nc2ccccc2C1=O", "EC50": 30}
{"smiles": "O=C1N=c2c(F)cccc2=C1c1[nH]c2ccccc2c1NO", "note": "[7-fluoro-3-[3-(hydroxyamino)-1H-indol-2-yl]-2-indolone]", "EC50": 30}
{"smiles": "O=C1N=c2c(Cl)cccc2=C1c1[nH]c2ccccc2c1NO", "note": "[7-chloro-3-[3-(hydroxyamino)-1H-indol-2-yl]-2-indolone]", "EC50": 30}
{"smiles": "O=C1Nc2ccccc2/C1=C1/Nc2ccccc2C1=O", "note": "[2-[(3Z)-2-oxo-2,3-dihydro-1H-indol-3-ylidene]-2,3-dihydro-1H-indol-3-one]", "EC50": 30}
{"smiles": "O=C1N=c2ccccc2=C1c1[nH]c2ccccc2c1NO", "note": "[3-[3-(hydroxyamino)-1H-indol-2-yl]-2-indolone]", "EC50": 30}
{"smiles": "O=C1N=c2ccc(Br)cc2=C1c1[nH]c2ccccc2c1NO", "note": "[5-bromanyl-3-[3-(oxidanylamino)-1H-indol-2-yl]indol-2-one]", "EC50": 30}
{"smiles": "O=C1Nc2ccc(Br)cc2C1=C1Nc2ccccc2C1=O", "EC50": 30}
{"smiles": "O=C1NC(=O)/C(=C2/C(=O)Nc3ccccc32)N1", "EC50": 5.26}
{"smiles": "O=C1Nc2c(Br)cccc2C1=C1Nc2ccccc2C1=O", "EC50": 30}
{"smiles": "O=C1N=c2c(Br)cccc2=C1c1[nH]c2ccccc2c1NO", "note": "[7-bromanyl-3-[3-(oxidanylamino)-1H-indol-2-yl]indol-2-one]", "EC50": 55.1}
{"smiles": "O=C1Nc2c(F)cccc2C1=C1Nc2ccccc2C1=O", "EC50": 30}
